Results on twelve compounds are retold here after paper PMC8890542, “Discovery of novel paeonol-based derivatives against skin inflammation in vitro and in vivo” (Journal of Enzyme Inhibition and Medicinal Chemistry, 2022).

Bounds are passed on as bounds.

What is called IC50 is the concentration that inhibits the measured activity by half. The term inhibition denotes the relative decrease from the control value, in per cent. By melting point is commonly meant the temperature of the solid-liquid transition.

Data set [1] relates to LPS-induced nitric oxide production in RAW264.7 cells. The experiment in a line: LPS-induced NO production, Griess Reagent assay. The settings on record: Mus musculus; for IC50: LPS (0.5 μg/mL) 24 h; for inhibition at 10 µM: compounds 10 μM, 1 h, then LPS (0.5 μg/mL) 24 h, read-out: Inhibition rate±SD (%) against NO production. The data set is classed as cell-based, mouse. The protocol: RAW264.7 cells (7 × 10^4 cells/well) were seeded into 48-well plate and used for experiments after 24 h. […] After 24 h collect cell supernatant, NO production was measured using Griess Reagent assay (Beyotime). Griess reagent were mixed at a ratio of 1:1, and reacted at room temperature for 15 min. Measurement of absorbance at […] with enzyme reader. At least three independent experiments were performed for the determination of IC50 values, which were shown as mean ± SD. All experimental data were analysed by using GraphPad Prism software, version 8.0 (GraphPad Inc.).
Background: Nitrite, measured by Griess reagent, commonly stands in for NO production.

Data set [2] is described as follows: Cell viability assay (MTT), RAW264.7. The data set is classed as cell-based, mouse. The settings on record: mouse, RAW264.7 cells, read-out: Cytotoxicity IC50 with RAW264.7. The protocol: RAW264.7 cells (1 × 10^4 cells/well) were seeded into 96-well plate and used for experiments after 24 h. Compounds (4 µM, 20 µM and 100 µM) treated cell for 24 h. Forty microliters of MTT solution (5 mg/mL, Sigma-Aldrich) was then added and incubated for an additional 4 h. After 4 h, cell culture supernatants were removed and DMSO (150 µL) was added into per well for dissolving the resulting crystals. Shaking about 1 0 ∼ 15 min and the absorbance at 492 nm was measured by a microplate reader (MQX200, Bio-Tek, Winooski, VT). At least three independent experiments were performed for the determination of IC50 values, which were shown as mean ± SD. All experimental data were analysed by using GraphPad Prism software, version 8.0 (GraphPad Inc.).

The nature of data set [3]: Cell viability assay (MTT), LO2. The data set is classed as cell-based. The settings on record: human, LO2 cells, read-out: Cytotoxicity IC50 with LO2.

The compound `CCN(CC)C(=O)Nc1cc(C(C)=O)c(O)cc1OC` [Compound A2, 3–(5-acetyl-4-hydroxy-2-methoxyphenyl)-1,1-diethylurea] came in with a melting point of 132 to 134 °C. Moreover, in data set [1], the IC50 is more than 10 µM and the inhibition at 10 µM turned out to be 30.2 ± 4.89%. The 50% inhibitory concentration (IC50) at 24 h in data set [2] is more than 100 µM. Moreover, the IC50 at 24 h in data set [3] is more than 100 µM.

`CNC(=O)Nc1cc(C(C)=O)c(O)cc1OC` [Compound A1, 1–(5-acetyl-4-hydroxy-2-methoxyphenyl)-3-methylurea] gave a melting point of 211 to 213 °C. In addition, in data set [1], the IC50 is more than 10 µM and the inhibition at 10 µM was 20.1 ± 6.12%. For the same compound, in data set [2], the IC50 at 24 h is more than 100 µM. The half-inhibitory concentration (IC50) at 24 h in data set [3] is more than 100 µM.

As to `COc1cc(O)c(C(C)=O)cc1NC(=O)Nc1ccccc1` [Compound B1, 1–(5-acetyl-4-hydroxy-2-methoxyphenyl)-3-phenylurea], in data set [1], the IC50 was 9.45 µM and the inhibition at 10 µM was determined as 51 ± 3.25%. In data set [2], the concentration for half-maximal inhibition (IC50) at 24 h is more than 100 µM. Moreover, the IC50 at 24 h in data set [3] was more than 100 µM.

Regarding `COc1cccc(NC(=O)Nc2cc(C(C)=O)c(O)cc2OC)c1` [Compound B8, 1–(5-acetyl-4-hydroxy-2-methoxyphenyl)-3–(3-methoxyphenyl) urea], the IC50 in data set [1] stood at 4.7 µM. For the same compound, the inhibition at 10 µM in data set [1] amounted to 74.7 ± 6.15%. Also, the IC50 at 24 h in data set [2] and in data set [3] was more than 100 µM in each case.

`COc1cc(O)c(C(C)=O)cc1NC(=O)NCc1ccccc1Cl` [Compound C1, 1–(5-acetyl-4-hydroxy-2-methoxyphenyl)-3–(2-chlorobenzyl) urea]: in data set [1], the half-maximal inhibitory concentration (IC50) is more than 10 µM and the inhibition at 10 µM worked out at 33.7 ± 6.15%. Further, the IC50 at 24 h in data set [2] was more than 100 µM. For the same compound, the IC50 at 24 h in data set [3] was more than 100 µM.

`COc1cc(O)c(C(C)=O)cc1NC(=O)Nc1cccc(F)c1` [Compound B5, 1–(5-acetyl-4-hydroxy-2-methoxyphenyl)-3–(3-fluorophenyl) urea]: in data set [1], half-maximal inhibition (IC50) required 6.22 µM and the inhibition at 10 µM stood at 63 ± 3.87%. Moreover, in data set [2], the IC50 at 24 h is more than 100 µM. For the same compound, the IC50 at 24 h in data set [3] was more than 100 µM.

For `COc1cc(O)c(C(C)=O)cc1NC(=O)NCCc1ccccc1F` [Compound D4, 1–(5-acetyl-4-hydroxy-2-methoxyphenyl)-3–(2-fluorophenethyl)urea], in data set [1], the IC50 was more than 10 µM and the inhibition at 10 µM worked out at 17.7 ± 2.15%. In data set [2], the half-inhibitory concentration (IC50) at 24 h is more than 100 µM. In addition, in data set [3], the IC50 at 24 h was more than 100 µM.

For `COc1ccccc1CNC(=O)Nc1cc(C(C)=O)c(O)cc1OC` [Compound C6, 1–(5-acetyl-4-hydroxy-2-methoxyphenyl)-3–(2-methoxybenzyl) urea], in data set [1], the concentration for half-maximal inhibition (IC50) is more than 10 µM and the inhibition at 10 µM turned out to be 8.12 ± 6.12%. In data set [2], the IC50 at 24 h was more than 100 µM. Also, the IC50 at 24 h in data set [3] was more than 100 µM.

Take `COc1cc(O)c(C(C)=O)cc1NC(=O)NCCc1ccccc1` [Compound D1, 1–(5-acetyl-4-hydroxy-2-methoxyphenyl)-3-phenethylurea]: the IC50 in data set [1] is more than 10 µM. In addition, the inhibition at 10 µM in data set [1] was found to be 15.3 ± 5.12%. The concentration for half-maximal inhibition (IC50) at 24 h in data set [2] and in data set [3] was more than 100 µM each time.

Regarding `COc1cc(O)c(C(C)=O)cc1NC(=O)Nc1ccc(C(F)(F)F)cc1` [Compound B11, 1–(5-acetyl-4-hydroxy-2-methoxyphenyl)-3–(4-(trifluoromethyl)phenyl) urea], in data set [1], the IC50 was determined as 5.08 µM and the inhibition at 10 µM came out at 60.9 ± 4.12%. Also, the IC50 at 24 h in data set [2] is more than 100 µM. Also, the IC50 at 24 h in data set [3] was more than 100 µM.

As to `COc1cc(O)c(C(C)=O)cc1NC(=O)NC(C)(C)C` [Compound A8, 1–(5-acetyl-4-hydroxy-2-methoxyphenyl)-3-(tert-butyl) urea], in data set [1], the half-maximal inhibitory concentration (IC50) was more than 10 µM and the inhibition at 10 µM worked out at 12.3 ± 4.12%. Moreover, the IC50 at 24 h in data set [2] was more than 100 µM. In data set [3], the concentration for half-maximal inhibition (IC50) at 24 h was more than 100 µM.

For the compound `Cc1ccc(-c2cc(C(F)(F)F)nn2-c2ccc(S(N)(=O)=O)cc2)cc1` [Cel, Celecoxib, reference compound], in data set [1], the IC50 was more than 10 µM and the inhibition at 10 µM turned out to be 30.1 ± 2.33%. Besides, in data set [2], the 50% inhibitory concentration (IC50) at 24 h was more than 100 µM. In data set [3], the IC50 at 24 h is more than 100 µM.
